# Entries after “also recorded” stand apart in the source; their conditions may differ.
# Experiments:
# [1] = system: VACV; format: cell-based, vaccinia virus; details: 48 h
# [2] = system: VACV; details: cited from earlier work
# [3] = system: MPXV resolvase (Mpr); format: biochemical, monkeypox virus; details: 50 µM
# [4] = system: poxvirus resolvases; details: cited from earlier work
# [5] = system: vaccinia virus (VACV); assay: microbe, parasite or virus in culture; format: cell-based; details: for EC50: Orthopoxvirus vaccinia
# [6] = system: VACV gene expression; format: cell-based; details: 10 µM
# [7] = system: VACV E3; format: cell-based, vaccinia virus; details: 10 µM
# [8] = system: VACV DNA replication; format: cell-based, vaccinia virus; details: 10 µM
# [9] = system: VACV; format: cell-based, vaccinia virus
# [10] = system: VACV; format: cell-based, vaccinia virus; details: 10 µM
# [11] = system: HFFs
# [12] = male, CD-1, mouse, in vivo
# [13] = system: HCMV; details: cited from earlier work
# [14] = system: pUL89C; details: cited from earlier work
# [15] = in vivo; details: male, CD-1, mouse
# [16] = in vitro; details: human
# [17] = microsomes; cited from earlier work
compound,measurement,setting,value
"Nc1ccn([C@@H]2O[C@H](CO)[C@@H](O)[C@@H]2O)c(=O)n1 [AraC, Cytarabine, reference compound]",late viral gene expression in rhesus colon enteroids,[1],markedly reduced
Cc1cc(C2CCCCC2)n(O)c(=O)c1 [Ciclopirox],inhibition of VACV replication,[2],efficient inhibitors of VACV replication
"O=c1c(-c2ccccc2)c(O)c2cc(-c3cccc(-c4ccccc4)c3)cnc2n1O [Compound 1, reference compound]",Mpr inhibition,[3],nearly complete inhibition
same,inhibition of poxvirus resolvases,[4],potently inhibits
O=C(NNc1nc2cc(F)ccc2n2cccc12)c1cnccn1 [SC144],inhibition of VACV replication,[2],efficient inhibitors of VACV replication
"O=C(NN1C(=O)[C@@H]2[C@@H]3C=C[C@@H]([C@H]4C[C@@H]34)[C@@H]2C1=O)c1ccc(C(F)(F)F)cc1 [Tecovirimat, reference compound]",EC50,[5],0.025 µM
O=C(NCCc1ccc(F)cc1F)c1cn(Cc2ccc(F)cc2)cc(O)c1=O [ZW-2038],reduction of Gaussia luciferase activity,[5]; 10 µM,more than 99%
same,EC50,[5],0.876 µM
same,luciferase activity from the early promoter (vEGluc),[6],did not affect
same,reporter activity from intermediate promoter (vIGluc),[6],significantly diminished
same,reporter activity from late promoter (vLGluc),[6],significantly diminished
same,E3 levels,[7],did not reduce
same,viral DNA accumulation,[8],marked reduction
same,viral replication (luciferase activity) in human jejunum enteroids,[9],significantly suppressed
same,late viral gene expression in rhesus colon enteroids,[1],markedly reduced
same,VACV titers in ex vivo mouse lung tissue,[10],consistently reduced
same,Mpr inhibition,[3],no Mpr inhibition; also recorded: did not inhibit
same,cell viability compared to vehicle,[11],no significant difference
same,"Bioavailability (F, %)",[12],4.1%
same,oral Cmax lower than IV Cmax,[12],14 fold
same,CL,"[12]; po, 20 mg/kg",67 ± 50 mL/min/kg
same,V,"[12]; po, 20 mg/kg",117 ± 46 L/kg
same,inhibition of HCMV,[13],potently inhibited
same,inhibition of pUL89C,[14],did not inhibit
same,bioavailability,"[15]; Bioavailability (F, %)",4%
same,AUC(0-t),"[15]; iv, 2 mg/kg",238 ± 54 ng·h/mL
same,Cmax,"[15]; iv, 2 mg/kg",528 ng/mL
same,MRT last,"[15]; iv, 2 mg/kg",0.9 ± 0.4 h
same,Tmax,"[15]; iv, 2 mg/kg",0.08 h
same,clearance,"[15]; iv, 2 mg/kg",150 mL/min/kg
same,half-life,"[15]; iv, 2 mg/kg",5 ± 2 h
same,AUC(0-t),"[15]; po, 20 mg/kg",98 ± 15 ng·h/mL
same,Cmax,"[15]; po, 20 mg/kg",38 ng/mL
same,MRT last,"[15]; po, 20 mg/kg",11 ± 2 h
same,Tmax,"[15]; po, 20 mg/kg",0.2 ± 0.2 h
same,half-life,"[15]; po, 20 mg/kg",104 ± 159 h
same,CC50,[16],> 500 µM
same,microsomal stability,[17],good

# Source: article PMC13286052 (Antimicrobial Agents and Chemotherapy, 2026)
